In article PMC11904948, “Peptide‐Drug Conjugate for Therapeutic Reprogramming of Tumor‐Associated Macrophages in Breast Cancer” (Advanced Science, 2025):

Experiments:
Balb/c BMDM = test: Flow cytometry of marker expression on Balb/c BMDM; type: cell-based, mouse; details: 10 µM 4 h, 48 h after treatment, n = 4
Procedure: Figure 6 MACTIDE‐V promotes a YAP‐ mediated anti‐ tumoral switch in bone marrow‐derived macrophages. Day 5 BMDM were incubated for 4 h with 10 µM conjugates, washed, and followed‐up in media. A) YAP Immunofluorescence (shown in red) was analyzed 3 h after treatment and B) phagocytosis of fluorescent E. coli particles at 48 h follow‐up. C) Flow cytometry on BMDM 48 h after treatment. Left panel, GeoMean of MHC II, CD206, CD80, and PD‐L1 in Balb/c BMDM. Median ± interquartile range. Repeated measures one‐way ANOVA with multiple comparisons, for n = 4 independent experiments. ^* p ≤ 0.05, ^** p ≤ 0.01. D) Heatmap of the mRNA expression of genes involved in the functional activation of BMDM, YAP signaling, and adhesion, measured by real‐time PCR 48 h after treatment in BALB/c BMDM. n = 3 independent experiments. […]
At the mRNA level, MACTIDE‐V induced a clear increase in Il‐12, Chil3 and Nos2 genes, (Figure 6D, left panel). […] To further investigate whether the effect of MACTIDE‐V was mediated by YAP targeting, we analyzed a set of 7 YAP‐regulated genes (Figure 6D, right panel). […]

[1] = tested on: BMDM obtained from C57/Bl6 (B6) mice; test: Flow cytometry and real-time PCR on B6 BMDM; type: cell-based, mouse
Procedure: At the mRNA level, MACTIDE‐V induced a clear increase in Il‐12, Chil3 and Nos2 genes, (Figure 6D, left panel). […] To further investigate whether the effect of MACTIDE‐V was mediated by YAP targeting, we analyzed a set of 7 YAP‐regulated genes (Figure 6D, right panel).
Figure S6. In vitro effect of MACTIDE-V on B6 mice-derived BMDMs. (A) Flow cytometry on BMDMs 48 h after treatment. GeoMean of MHC II in B6 BMDM, n=4 independent experiments. *p≤0.05. (B) Heatmap of the mRNA expression of genes involved in the functional activation of BMDM, measured by real-time PCR 48 h after treatment in B6 BMDM, n=2 independent experiments.

[2] = tested on: primary human macrophages; test: Cytokine secretion by primary human macrophages (bead-based multiplex panel); type: cell-based; details: 10 µM 4 h, washed, 48 h, supernatant, n = 3
Procedure: To investigate potential off‐target risk in vivo caused by MACTIDE‐V we analyzed the serum levels of the hepatic enzyme alanine aminotransferase (ALAT) following a 3 mg Kg^−1 dose of MACTIDE‐V in healthy mice. If MACTIDE‐V causes off‐target inflammation, it would likely occur in the liver (the organ that expresses the MACTIDE receptor) and would reflect on ALAT levels (liver inflammation produces a > 2‐fold increase in ALAT^[ [35] ^]).
Figure S9. Quantification of cytokines from the supernatant of primary human macrophages treated with MACTIDE-V. Primary human macrophages (obtained from monocytes derived from human blood buffy coat) were incubated with 10µM MACTIDE-V for 4 h, followed by 2 washes with media, the cells were then placed in new media and cultured for an additional 48 h. Then, the supernatant was collected and analyzed for cytokine expression using a bead-based multiplexed cytokine panel assay (Biolegend, cat# 740502) following the manufacturer’s instructions. Anova Fisher LSD (n=3).

## Vert‐Ahx‐G(CTKSIPPIC)SPGAK‐OH (disulfide) [MACTIDE‐V]
Balb/c BMDM
  expression of CD80 (GeoMean): no significant changes
  expression of CD206 (GeoMean): no significant changes
Balb/c BMDM; versus CtrlPep‐V and untreated
  expression of MHC II (GeoMean): upregulated
  expression of PD‐L1 (GeoMean): upregulated
[1]; flow cytometry 48 h after treatment, n = 4
  MHCII expression in B6 BMDM (GeoMean): increased MHCII expression
[1]; real-time PCR 48 h after treatment, n = 2
  inflammatory gene mRNA expression in B6 BMDM: upregulated the inflammatory genes Il‐1b, Il‐12 and Nos2
[2]
  secretion of IFN‐γ: did not significantly increase
  secretion of IL‐1RA: significantly decreased
  secretion of IL‐12: significantly increased
  secretion of IL‐23: significantly increased
  secretion of TNF‐α: did not significantly increase
